Values quoted from earlier work, collected in US20120263802A1 (priority 2003, published 2012).

Assays:
range of models = conditions: once-daily oral administration; Wedge et al, Proc. Am. Assoc. Canc. Res. 2001; 42: abstract 3126

SMILES: COc1cc2c(Nc3ccc(Br)cc3F)ncnc2cc1OCC1CCN(C)CC1 [ZD6474, 4-(4-bromo-2-fluoroanilino)-6-methoxy-7-(1-methylpiperidin-4-ylmethoxy)quinazoline]
- inhibition of VEGF RTK (VEGF RTK): potent inhibitor
- anti-tumour activity (range of models): broad-spectrum anti-tumour activity
